# According to US10723741B1, “DNA polymerase IIIC inhibitors and use thereof” (Acurx Pharmaceuticals, LLC, priority 2018, dated 2020):
# Columns and labels:
# Format in all cases: cell-based
# [1] = test system: Staphylococcus aureus NRS384 (MRSA); experiment: Broth microdilution MIC, S. aureus NRS384 (MRSA); settings: Staphylococcus aureus; broth microdilution, 37° C., 20 hours; read-out: MIC NRS 384 (MRSA)
# Method in brief: (§1)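 Two-fold dilutions from 64 to 0.0625 μg/ml final, 1% DMSO, were inoculated at ~5.0×10^5 cfu/ml in the strain's test medium and kept 20 h at 37 °C in ambient atmosphere. Colonies were grown on MHA, with S. pneumoniae on blood agar under 5% CO2.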
# [2] = test system: Staphylococcus aureus ATCC 29213 (MSSA); experiment: Broth microdilution MIC, S. aureus ATCC 29213 (MSSA); settings: broth microdilution, 37° C., 20 hours, read-out: MIC S. aureus ATCC 29213 (MSSA)
# Method in brief: as §1
# [3] = test system: Enterococcus faecalis ATCC 29212; experiment: Broth microdilution MIC, E. faecalis ATCC 29212; settings: ATCC29212, broth microdilution, 37° C., 20 hours, read-out: MIC E. faecalis ATCC 29212
# Method in brief: as §1
# [4] = test system: Enterococcus faecium ATCC 700221 (VRE); experiment: Broth microdilution MIC, E. faecium ATCC 700221 (VRE); settings: Enterococcus faecium; broth microdilution, 37° C., 20 hours; read-out: MIC E. faecium ATCC 700221 (VRE)
# Method in brief: as §1
# [5] = test system: Streptococcus pneumoniae ATCC 49619; experiment: Broth microdilution MIC, S. pneumoniae ATCC 49619; settings: ATCC49619, broth microdilution, 37° C., 20 hours, read-out: MIC S. pneumoniae ATCC 49619
# Method in brief: as §1
# [6] = test system: Bacillus subtilis ATCC 6633; experiment: Broth microdilution MIC, B. subtilis ATCC 6633; settings: ATCC6633, broth microdilution, 37° C., 20 hours, read-out: MIC B. subtilis ATCC 6633
# Method in brief: as §1
# [7] = test system: Escherichia coli ATCC 25922; experiment: Broth microdilution MIC, E. coli ATCC 25922 (MHIIB w & w/o 4 mM EDTA); settings: broth microdilution, 37° C., 20 hours; for MIC: Escherichia coli, ATCC25922, without EDTA, read-out: MIC E. coli ATCC 25922; for MIC E. coli ATCC 25922 + 4 mM EDTA: with 4 mM EDTA
# Method in brief: as §1
Structure (SMILES),MIC [1] [µg/mL],MIC [2] [µg/mL],MIC [3] [µg/mL],MIC [4] [µg/mL],MIC [5] [µg/mL],MIC [6] [µg/mL],MIC [7] [µg/mL],MIC E. coli ATCC 25922 + 4 mM EDTA [7] [µg/mL]
"CC(C)(C)OC(=O)N1CCC(CN2CCC(n3ncc4nc(NCc5ccc(Cl)c(Cl)c5)[nH]c(=O)c43)CC2)CC1 [Compound 248, tert-Butyl 4-((4-(5-((3,4-dichlorobenzyl)amino)-7-oxo-6,7-dihydro-1H-pyrazolo[4,3-d]pyrimidin-1-yl)piperidin-1-yl)methyl)piperidine-1-carboxylate2,2,2-trifluoroacetate]",16,16,4,4,8,4,> 64,8
"Cl.Cl.O=c1[nH]c(NCc2ccc(Cl)c(Cl)c2)nc2cnn(C3CCN(CC4CCCCN4)CC3)c12 (stereo not shown) [Compound 249, 5-((3,4-dichlorobenzyl)amino)-1-(1-(piperidin-2-ylmethyl)piperidin-4-yl)-1H-pyrazolo[4,3-d]pyrimidin-7(6H)-one dihydrochloride]",16,16,16,8,4,4,> 64,64
CC(C)(C)OC(=O)N1CCCC(CN2CCC(n3ncc4nc(NCc5ccc(Cl)c(Cl)c5)[nH]c(=O)c43)CC2)C1.Cl (stereo not shown) [Compound 250],> 64,> 64,> 64,4,8,4,> 64,>64
"Cl.Cl.O=c1[nH]c(NCc2ccc(Cl)c(Cl)c2)nc2cnn(C3CCN(CC4CCCNC4)CC3)c12 (stereo not shown) [Compound 251, 5-((3,4-dichlorobenzyl)amino)-1-(1-(piperidin-3-ylmethyl)piperidin-4-yl)-1H-pyrazolo[4,3-d]pyrimidin-7(6H)-one dihydrochloride]",16,16,16,16,8,4,> 64,64
"Cl.O=C(c1ccncc1)N1CCC(n2ncc3nc(NCc4ccc(Cl)c(Cl)c4)[nH]c(=O)c32)CC1 [Compound 252, 5-((3,4-dichlorobenzyl)amino)-1-(1-isonicotinoylpiperidin-4-yl)-1H-pyrazolo[4,3-d]pyrimidin-7(6H)-one hydrochloride]",4,4,4,2,2,1,> 64,>64
"O=C(c1cocn1)N1CCC(n2ncc3nc(NCc4ccc(Cl)c(Cl)c4)[nH]c(=O)c32)CC1 [Compound 253, 5-[(3,4-Dichlorophenyl)methylamino]-1-[1-(oxazole-4-carbonyl)-4-piperidyl]-6H-pyrazolo[4,3-d]pyrimidin-7-one]",2,2,4,2,2,1,> 64,>64
"O=C(c1nccs1)N1CCC(n2ncc3nc(NCc4ccc(Cl)c(Cl)c4)[nH]c(=O)c32)CC1 [Compound 254, 5-[(3,4-Dichlorophenyl)methylamino]-1-[1-(thiazole-2-carbonyl)-4-piperidyl]-6H-pyrazolo[4,3-d]pyrimidin-7-one]",2,2,4,2,4,1,> 64,>64
"Cl.O=C(c1ccccn1)N1CCC(n2ncc3nc(NCc4ccc(Cl)c(Cl)c4)[nH]c(=O)c32)CC1 [Compound 255, 5-((3,4-Dichlorobenzyl)amino)-1-(1-picolinoylpiperidin-4-yl)-1H-pyrazolo[4,3-d]pyrimidin-7(6H)-one hydrochloride]",4,4,4,2,2,2,> 64,>64
"Cl.O=C(c1cccnc1)N1CCC(n2ncc3nc(NCc4ccc(Cl)c(Cl)c4)[nH]c(=O)c32)CC1 [Compound 256, 5-((3,4-Dichlorobenzyl)amino)-1-(1-nicotinoylpiperidin-4-yl)-1H-pyrazolo[4,3-d]pyrimidin-7(6H)-one hydrochloride]",4,8,4,2,4,2,> 64,>64
"Cl.O=C(c1ccccn1)N1CCC(n2ncc3nc(NCc4ccc(Cl)c(Cl)c4)[nH]c(=O)c32)C1 (stereo not shown) [Compound 257, 5-((3,4-Dichlorobenzyl)amino)-1-(1-picolinoylpyrrolidin-3-yl)-1H-pyrazolo[4,3-d]pyrimidin-7(6H)-one]",4,4,8,4,4,2,> 64,>64
"Cl.O=C(c1cccnc1)N1CCC(n2ncc3nc(NCc4ccc(Cl)c(Cl)c4)[nH]c(=O)c32)C1 (stereo not shown) [Compound 258, 5-((3,4-Dichlorobenzyl)amino)-1-(1-nicotinoylpyrrolidin-3-yl)-1H-pyrazolo[4,3-d]pyrimidin-7(6H)-one]",8,8,8,4,4,2,> 64,>64
"Cl.O=C(c1ccncc1)N1CCC(n2ncc3nc(NCc4ccc(Cl)c(Cl)c4)[nH]c(=O)c32)C1 (stereo not shown) [Compound 259, 5-[(3,4-Dichlorophenyl)methylamino]-1-[1-(pyridine-4-carbonyl)pyrrolidin-3-yl]-6H-pyrazolo[4,3-d]pyrimidin-7-one]",8,8,4,4,4,2,> 64,>64
"COc1cncc(C(=O)N2CCC(n3ncc4nc(NCc5ccc(Cl)c(Cl)c5)[nH]c(=O)c43)CC2)c1.Cl [Compound 260, 5-((3,4-Dichlorobenzyl)amino)-1-(1-(5-methoxynicotinoyl)piperidin-4-yl)-1H-pyrazolo[4,3-d]pyrimidin-7(6H)-one hydrochloride]",4,4,4,2,4,1,> 64,>64
"Cc1cncc(C(=O)N2CCC(n3ncc4nc(NCc5ccc(Cl)c(Cl)c5)[nH]c(=O)c43)CC2)c1.Cl [Compound 261, 5-((3,4-Dichlorobenzyl)amino)-1-(1-(5-methylnicotinoyl)piperidin-4-yl)-1H-pyrazolo[4,3-d]pyrimidin-7(6H)-one hydrochloride]",4,4,4,2,4,1,> 64,>64
"Cc1cccnc1C(=O)N1CCC(n2ncc3nc(NCc4ccc(Cl)c(Cl)c4)[nH]c(=O)c32)CC1.Cl [Compound 262, 5-((3,4-Dichlorobenzyl)amino)-1-(1-(3-methylpicolinoyl)piperidin-4-yl)-1H-pyrazolo[4,3-d]pyrimidin-7(6H)-one hydrochloride]",4,4,4,2,4,1,> 64,>64
"COc1ccnc(C(=O)N2CCC(n3ncc4nc(NCc5ccc(Cl)c(Cl)c5)[nH]c(=O)c43)CC2)c1.Cl [Compound 263, 5-((3,4-dichlorobenzyl)amino)-1-(1-(4-methoxypicolinoyl)piperidin-4-yl)-1H-pyrazolo[4,3-d]pyrimidin-7(6H)-one hydrochloride]",2,4,4,1,2,1,> 64,>64
"Cc1ccnc(C(=O)N2CCC(n3ncc4nc(NCc5ccc(Cl)c(Cl)c5)[nH]c(=O)c43)CC2)c1.Cl [Compound 264, 5-((3,4-Dichlorobenzyl)amino)-1-(1-(4-methylpicolinoyl)piperidin-4-yl)-1H-pyrazolo[4,3-d]pyrimidin-7(6H)-one hydrochloride]",2,4,4,1,4,1,> 64,>64
